Laboratory results from US11155544B2, “Heterocycle comprising tyrosine kinase inhibitors” (Principia Biopharma Inc., priority 2015, dated 2021).
pIC50: −log10 of the molar value.

biological target: human recombinant BTK (Homo sapiens (Human), UniProt Q06187); assay: BTK Enzymatic Activity Assay (Caliper-based kinase assay); assay type: biochemical; details: human recombinant BTK (0.5 nM), ATP (16 μM), peptide substrate (1 μM), room temperature for 3 h
Method: A Caliper-based kinase assay (Caliper Life Sciences, Hopkinton, Mass.) was used to measure inhibition of BTK kinase activity of a compound of the present disclosure. Serial dilutions of test compounds were incubated with human recombinant BTK (0.5 nM), ATP (16 μM) and a phosphoacceptor peptide substrate FAM-GEEPLYWSFPAKKK-NH2 (1 μM) at room temperature for 3 h. The reaction was then terminated with EDTA, final concentration 20 mM and the phosphorylated reaction product was quantified on a Caliper Desktop Profiler (Caliper LabChip 3000). Percent inhibition was calculated for each compound dilution and the concentration that produced 50% inhibition was calculated. This value is presented as the IC50.

Chain of human recombinant BTK (Q06187 whole entry): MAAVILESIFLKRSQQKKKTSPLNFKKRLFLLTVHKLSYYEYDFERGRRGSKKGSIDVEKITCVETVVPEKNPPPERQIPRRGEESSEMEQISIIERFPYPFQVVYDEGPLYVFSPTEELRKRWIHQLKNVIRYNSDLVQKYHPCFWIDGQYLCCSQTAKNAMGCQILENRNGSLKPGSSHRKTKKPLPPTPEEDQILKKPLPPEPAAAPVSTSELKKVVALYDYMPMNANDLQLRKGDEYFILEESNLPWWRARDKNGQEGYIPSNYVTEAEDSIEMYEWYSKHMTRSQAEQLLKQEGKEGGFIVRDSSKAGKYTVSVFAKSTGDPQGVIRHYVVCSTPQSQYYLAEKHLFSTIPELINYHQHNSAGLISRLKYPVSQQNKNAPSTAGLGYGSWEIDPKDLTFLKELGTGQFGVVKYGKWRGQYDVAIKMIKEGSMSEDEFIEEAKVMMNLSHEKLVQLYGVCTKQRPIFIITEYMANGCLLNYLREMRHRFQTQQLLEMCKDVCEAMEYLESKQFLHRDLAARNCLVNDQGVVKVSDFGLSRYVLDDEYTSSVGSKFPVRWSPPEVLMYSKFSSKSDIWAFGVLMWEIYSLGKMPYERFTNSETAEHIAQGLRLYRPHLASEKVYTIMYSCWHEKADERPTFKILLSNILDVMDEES

Compound | pIC50
CN1CCN(C(C)(C)C=C(C#N)C(=O)N2CCC[C@@H](c3nc(-c4ccc(Oc5ccccc5)cc4)c4c(N)nccn34)C2)CC1=O [Compound 52, (R)-2-(3-(8-amino-1-(4-phenoxyphenyl)imidazo[1,5-a]pyrazin-3-yl)piperidine-1-carbonyl)-4-methyl-4-(4-methyl-3-oxopiperazin-1-yl)pent-2-enenitrile] | 8.74
CN1CCN(C(C)(C)C=C(C#N)C(=O)N2CCC[C@@H](n3nc(-c4ccc(Oc5ccccc5)cc4F)c4c(N)nccc43)C2)CC1=O [Compound 72, (R)-2-(3-(4-amino-3-(2-fluoro-4-phenoxyphenyl)-1H-pyrazolo[4,3-c]pyridin-1-yl)piperidine-1-carbonyl)-4-methyl-4-(4-methyl-3-oxopiperazin-1-yl)pent-2-enenitrile] | 8.70
CC(C)(C=C(C#N)C(=O)N1CCC[C@@H](n2nc(-c3ccc(C(=O)Nc4cc(F)ccn4)cc3)c3c(N)nccc32)C1)N1CCN(C2COC2)CC1 [Compound 50, (R)-4-(4-amino-1-(1-(2-cyano-4-methyl-4-(4-(oxetan-3-yl)piperazin-1-yl)pent-2-enoyl)piperidin-3-yl)-1H-pyrazolo[4,3-c]pyridin-3-yl)-N-(4-fluoropyridin-2-yl)benzamide] | 8.38
CC(C)(C=C(C#N)C(=O)N1CCC[C@@H](c2nc(-c3ccc(Oc4ccccc4)cc3)c3c(N)nccn23)C1)N1CCN(C2COC2)CC1 [Compound 35, (R)-2-(3-(8-amino-1-(4-phenoxyphenyl)imidazo[1,5-a]pyrazin-3-yl)piperidine-1-carbonyl)-4-methyl-4-(4-(oxetan-3-yl)piperazin-1-yl)pent-2-enenitrile] | 8.68
CC1(C=C(C#N)C(=O)N2CCC[C@@H](c3nc(-c4ccc(Oc5ccccc5)cc4)c4c(N)nccn34)C2)CCOCC1 [Compound 54, (R)-2-(3-(8-amino-1-(4-phenoxyphenyl)imidazo[1,5-a]pyrazin-3-yl)piperidine-1-carbonyl)-3-(4-methyltetrahydro-2H-pyran-4-yl)acrylonitrile] | 8.77
CC(C)(C=C(C#N)C(=O)N1CCC[C@@H](c2nc(-c3ccc(Oc4ccccc4)cc3)c3c(N)nccn23)C1)N1CCN2C(=O)CC[C@H]2C1 [Compound 64, 2-((R)-3-(8-amino-1-(4-phenoxyphenyl)imidazo[1,5-a]pyrazin-3-yl)piperidine-1-carbonyl)-4-methyl-4-((S)-6-oxohexahydropyrrolo[1,2-a]pyrazin-2(1H)-yl)pent-2-enenitrile] | 9.10
CN1CCN(C(=O)C(C#N)=CC2(C)CCOCC2)C[C@@H]1c1nc(-c2ccc(Oc3ccccc3)cc2)c2c(N)nccn12 [Compound 67, (R)-2-(3-(8-amino-1-(4-phenoxyphenyl)imidazo[1,5-a]pyrazin-3-yl)-4-methylpiperazine-1-carbonyl)-3-(4-methyltetrahydro-2H-pyran-4-yl)acrylonitrile] | 9.70
CN(C1COC1)C(C)(C)C=C(C#N)C(=O)N1CCC[C@@H](n2nc(-c3ccc(C(=O)Nc4ccccn4)cc3)c3c(N)nccc32)C1 [Compound 46, (R)-4-(4-amino-1-(1-(2-cyano-4-methyl-4-(methyl(oxetan-3-yl)amino)pent-2-enoyl)piperidin-3-yl)-1H-pyrazolo[4,3-c]pyridin-3-yl)-N-(pyridin-2-yl)benzamide] | 8.68
CC(=O)N1CCN(C(C)(C)C=C(C#N)C(=O)N2CCC[C@@H](c3nc(-c4ccc(Oc5ccccc5)cc4F)c4c(N)nccn34)C2)CC1 [Compound 59, (R)-4-(4-acetylpiperazin-1-yl)-2-(3-(8-amino-1-(2-fluoro-4-phenoxyphenyl)imidazo[1,5-a]pyrazin-3-yl)piperidine-1-carbonyl)-4-methylpent-2-enenitrile] | 8.85
CC1(C=C(C#N)C(=O)N2CCC[C@@H](n3nc(-c4ccc(Oc5ccccc5)cc4F)c4c(N)nccc43)C2)CCN(C2COC2)CC1 [Compound 49, (R)-2-(3-(4-amino-3-(2-fluoro-4-phenoxyphenyl)-1H-pyrazolo[4,3-c]pyridin-1-yl)piperidine-1-carbonyl)-3-(4-methyl-1-(oxetan-3-yl)piperidin-4-yl)acrylonitrile] | 8.74
CC(C)(C=C(C#N)C(=O)N1CCC[C@@H](n2nc(-c3ccc(Oc4cccc(F)c4F)cc3)c3c(N)nccc32)C1)N1CCN(C2COC2)CC1 [Compound 29, (R)-2-(3-(4-amino-3-(4-(2,3-difluorophenoxy)phenyl)-1H-pyrazolo[4,3-c]pyridin-1-yl)piperidine-1-carbonyl)-4-methyl-4-(4-(oxetan-3-yl)piperazin-1-yl)pent-2-enenitrile] | 9.10
CC1(C=C(C#N)C(=O)N2CCC[C@@H](n3nc(-c4ccc(Oc5ccccc5)cc4)c4c(N)nccc43)C2)CCN(C2COC2)CC1 [Compound 42, (R)-2-(3-(4-amino-3-(4-phenoxyphenyl)-1H-pyrazolo[4,3-c]pyridin-1-yl)piperidine-1-carbonyl)-3-(4-methyl-1-(oxetan-3-yl)piperidin-4-yl)acrylonitrile] | 8.59
CC(C)(C=C(C#N)C(=O)N1CCC[C@H]1Cn1nc(-c2ccc(C(=O)Nc3ccccn3)cc2)c2c(N)nccc21)N1CCOCC1 [Compound 21, (S)-4-(4-amino-1-((1-(2-cyano-4-methyl-4-morpholinopent-2-enoyl)pyrrolidin-2-yl)methyl)-1H-pyrazolo[4,3-c]pyridin-3-yl)-N-(pyridin-2-yl)benzamide] | 7.73
COC(=O)N1CCN(C(C)(C)C=C(C#N)C(=O)N2CCC[C@@H](c3nc(-c4ccc(Oc5ccccc5)cc4)c4c(N)nccn34)C2)CC1 [Compound 56, (R)-methyl 4-(5-(3-(8-amino-1-(4-phenoxyphenyl)imidazo[1,5-a]pyrazin-3-yl)piperidin-1-yl)-4-cyano-2-methyl-5-oxopent-3-en-2-yl)piperazine-1-carboxylate] | 8.92
CC(C)(C=C(C#N)C(=O)N1CCC[C@@H](c2nc(-c3ccc(Oc4ccccc4)cc3F)c3c(N)nccn23)C1)N1CCN(C2COC2)CC1 [Compound 2, (R)-2-(3-(8-amino-1-(2-fluoro-4-phenoxyphenyl)imidazo[1,5-a]pyrazin-3-yl)piperidine-1-carbonyl)-4-methyl-4-(4-(oxetan-3-yl)piperazin-1-yl)pent-2-enenitrile] | 8.72
CC(C)(C=C(C#N)C(=O)N1CCC[C@@H](c2nc(-c3ccc(Oc4ccccc4)cc3F)c3c(N)nccn23)C1)N1CCN2C(=O)CC[C@@H]2C1 [Compound 63, 2-((R)-3-(8-amino-1-(2-fluoro-4-phenoxyphenyl)imidazo[1,5-a]pyrazin-3-yl)piperidine-1-carbonyl)-4-methyl-4-((R)-6-oxohexahydropyrrolo[1,2-a]pyrazin-2(1H)-yl)pent-2-enenitrile] | 9.05
CC(C)(C=C(C#N)C(=O)N1CCC[C@@H](n2nc(-c3ccc(Oc4c(F)cccc4F)cc3)c3c(N)nccc32)C1)N1CCN(C2COC2)CC1 [Compound 28, (R)-2-(3-(4-amino-3-(4-(2,6-difluorophenoxy)phenyl)-1H-pyrazolo[4,3-c]pyridin-1-yl)piperidine-1-carbonyl)-4-methyl-4-(4-(oxetan-3-yl)piperazin-1-yl)pent-2-enenitrile] | 9.05
CC1(C=C(C#N)C(=O)N2CCC[C@@H](n3nc(-c4ccc(Oc5ccccc5)cc4)c4c(N)nccc43)C2)CCOCC1 [Compound 43, (R)-2-(3-(4-amino-3-(4-phenoxyphenyl)-1H-pyrazolo[4,3-c]pyridin-1-yl)piperidine-1-carbonyl)-3-(4-methyltetrahydro-2H-pyran-4-yl)acrylonitrile] | 8.70
CCN1CCN(C(C)(C)C=C(C#N)C(=O)N2CCC[C@@H](n3nc(-c4ccc(Oc5ccccc5)cc4)c4c(N)nccc43)C2)CC1=O [Compound 41, (R)-2-(3-(4-amino-3-(4-phenoxyphenyl)-1H-pyrazolo[4,3-c]pyridin-1-yl)piperidine-1-carbonyl)-4-(4-ethyl-3-oxopiperazin-1-yl)-4-methylpent-2-enenitrile] | 8.62
CC(C)(C=C(C#N)C(=O)N1CCC[C@@H](n2nc(-c3ccc(C(=O)Nc4ccccn4)cc3)c3c(N)nccc32)C1)N1CCN(C2COC2)CC1 [Compound 47, (R)-4-(4-amino-1-(1-(2-cyano-4-methyl-4-(4-(oxetan-3-yl)piperazin-1-yl)pent-2-enoyl)piperidin-3-yl)-1H-pyrazolo[4,3-c]pyridin-3-yl)-N-(pyridin-2-yl)benzamide] | 8.39
CN1CCN(C(C)(C)C=C(C#N)C(=O)N2CCC[C@H]2Cn2nc(-c3ccc(Oc4ccccc4)cc3F)c3c(N)nccc32)CC1=O [Compound 32, (S)-2-(2-((4-amino-3-(2-fluoro-4-phenoxyphenyl)-1H-pyrazolo[4,3-c]pyridin-1-yl)methyl)pyrrolidine-1-carbonyl)-4-methyl-4-(4-methyl-3-oxopiperazin-1-yl)pent-2-enenitrile] | 8.05
CC1(C=C(C#N)C(=O)N2CCC[C@@H](n3nc(-c4ccc(Oc5ccccc5)cc4F)c4c(N)nccc43)C2)CCOCC1 [Compound 48, (R)-2-(3-(4-amino-3-(2-fluoro-4-phenoxyphenyl)-1H-pyrazolo[4,3-c]pyridin-1-yl)piperidine-1-carbonyl)-3-(4-methyltetrahydro-2H-pyran-4-yl)acrylonitrile] | 8.51
CC(C)(C=C(C#N)C(=O)N1CCC[C@@H](c2nc(-c3ccc(Oc4ccccc4)cc3)c3c(N)nccn23)C1)N1CCN2C(=O)CC[C@@H]2C1 [Compound 65, 2-((R)-3-(8-amino-1-(4-phenoxyphenyl)imidazo[1,5-a]pyrazin-3-yl)piperidine-1-carbonyl)-4-methyl-4-((R)-6-oxohexahydropyrrolo[1,2-a]pyrazin-2(1H)-yl)pent-2-enenitrile] | 9.22
